From US11267812B2 (Mirati Therapeutics, Inc., priority 2016, dated 2022)

System: Phospho-ERK in NCI-H358 cells expressing KRas G12C
Assay: Cellular inhibition of KRas G12C by Phospho-ERK measurement in NCI-H358 cells
Format: cell-based
Details: Homo sapiens; NCI-H358 cells, 3 hours compound treatment; read-out: IC50 (pERK(Thr202/Tyr204) normalized with GAPDH)
Procedure: The cellular inhibition of KRAs G12C by exemplary compounds of the present invention was determined by measuring the amount of a downstream marker of KRas activity, phosphorylated ERK (“Phospho-ERK”).
NCI-H358 cells (ATCC CRL-5807) express KRas G12C and were grown in RPMI medium supplemented with 10% fetal bovine serum, penicillin/streptomycin and 10 mM HEPES. Cells were plated in poly-D-Lysine coated 96-well plates at a concentration of 50,000 cells/well and allowed to attach for 8-12 hours. Diluted compounds were then added at a final concentration of 0.5% DMSO. After 3 hours, the medium was removed, 150 μL of 4% formaldehyde was added and the plates were incubated for 20 minutes. The plates were washed with PBS, and permeabilized using 150 μL of ice cold 100% methanol for 10 minutes. Non-specific antibody binding to the plates was blocked using 100 μL Licor Blocking Buffer (Li-Cor Biotechnology, Lincoln Nebr.) for 1 hour at room temperature. Positive control samples and samples lacking cells were parallel processed with test samples as standards.
The amount Phospho-ERK was determined using an antibody specific for the phosphorylated form of ERK and compared to the amount of GAPDH. Primary antibodies used for detection were added as follows: Phospho-ERK (Cell Signaling cs9101) diluted 1:500 and GAPDH (Millipore MAB374) diluted 1:5000 in Licor block+0.05% Tween 20. The plates were incubated for 2 hours at room temperature. The plates were washed with PBS+0.05% Tween 20.
Secondary antibodies used to visualize primary antibodies were added as follows: Anti-rabbit-680 diluted 1:1000 and Anti-mouse-800 diluted 1:1000 in Licor Block+0.050 Tween 20 and incubated for 1 hour at room temperature. The plates were washed with PBS+0.05% o Tween 20. A100 L aliquot of PBS was added to each well and the plates were read on a LICOR AERIUS plate reader.
The pERK(Thr202/Tyr204) signal was normalized with the GAPDH signal and percent of DMSO control values were calculated. IC50 values were generated using a 4 parameter fit of the dose response curve. Key: “A”≥0.001-≤1 μM; “B”[…] and ND=not determined.

Structure (SMILES)	IC50 [nM]
C=CC(=O)N1CCN(c2nc(OC[C@@H]3CCCN3C)nc3c2CCN(c2cc(F)ccc2OC(F)(F)F)C3)CC1CC#N (stereo partly drawn) [Example 225, 2-(1-acryloyl-4-(7-(5-fluoro-2-(trifluoromethoxy)phenyl)-2-(((S)-1-methylpyrrolidin-2-yl)methoxy)-5,6,7,8-tetrahydropyrido[3,4-d]pyrimidin-4-yl)piperazin-2-yl)acetonitrile]	1 to 1000
C=CC(=O)N1CCN(c2nc(OC[C@@H]3CCCN3C)nc3c2CCN(c2ccccc2F)C3)CC1CC#N (stereo partly drawn) [Example 227, 2-(1-acryloyl-4-(7-(2-fluorophenyl)-2-(((S)-1-methylpyrrolidin-2-yl)methoxy)-5,6,7,8-tetrahydropyrido[3,4-d]pyrimidin-4-yl)piperazin-2-yl)acetonitrile]	1 to 1000
C=CC(=O)N1CCN(c2nc(OCC3CCN(CCOC)C3)nc3c2CCN(c2cc(O)cc4ccccc24)C3)CC1 (stereo not shown) [Example 103, 1-(4-(7-(3-hydroxynaphthalen-1-yl)-2-((1-(2-methoxyethyl)pyrrolidin-3-yl)methoxy)-5,6,7,8-tetrahydropyrido[3,4-d]pyrimidin-4-yl)piperazin-1-yl)prop-2-en-1-one]	1 to 1000
C=CC(=O)N1CCN(c2nc(OCCN3CCC[C@H](F)C3)nc3c2CCN(c2cc(O)cc4ccccc24)C3)CC1 [Example 111, (S)-1-(4-(2-(2-(3-fluoropiperidin-1-yl)ethoxy)-7-(3-hydroxynaphthalen-1-yl)-5,6,7,8-tetrahydropyrido[3,4-d]pyrimidin-4-yl)piperazin-1-yl)prop-2-en-1-one]	1 to 1000
C=CC(=O)N1CCN(c2nc(OC[C@@H]3CCCN3CCOC)nc3c2CCN(c2cc(O)cc4ccccc24)C3)CC1 [Example 144, (S)-1-(4-(7-(3-hydroxynaphthalen-1-yl)-2-((1-(2-methoxyethyl)pyrrolidin-2-yl)methoxy)-5,6,7,8-tetrahydropyrido[3,4-d]pyrimidin-4-yl)piperazin-1-yl)prop-2-en-1-one]	1 to 1000
C=CC(=O)N1CCN(c2nc(OC[C@@H]3CCCN3CC)nc3c2CCN(c2cc(O)cc4ccccc24)C3)CC1 [Example 197, (S)-1-(4-(2-((1-ethylpyrrolidin-2-yl)methoxy)-7-(3-hydroxynaphthalen-1-yl)-5,6,7,8-tetrahydropyrido[3,4-d]pyrimidin-4-yl)piperazin-1-yl)prop-2-en-1-one]	1 to 1000
C=CC(=O)N1CCN(c2nc(OCC3CN(C)CCO3)nc3c2CCN(c2cc(O)cc4ccccc24)C3)CC1 (stereo not shown) [Example 193, 1-(4-(7-(3-hydroxynaphthalen-1-yl)-2-((4-methylmorpholin-2-yl)methoxy)-5,6,7,8-tetrahydropyrido[3,4-d]pyrimidin-4-yl)piperazin-1-yl)prop-2-en-1-one]	1 to 1000
C=CC(=O)N1CCN(c2nc(OCCN3CCCCC3)nc3c2CCN(c2cc(O)cc4ccccc24)C3)CC1 [Example 52, 1-[4-[7-(3-hydroxy-1-naphthyl)-2-[2-(1-piperidyl)ethoxy]-6,8-dihydro-5H-pyrido[3,4-d]pyrimidin-4-yl]piperazin-1-yl]prop-2-en-1-one]	1 to 1000
C=CC(=O)N1CCN(c2nc(OCC3CCCN(C)C3)nc3c2CCN(c2cc(O)cc4ccccc24)C3)CC1 (stereo not shown) [Example 72, 1-(4-(7-(3-hydroxynaphthalen-1-yl)-2-((1-methylpiperidin-3-yl)methoxy)-5,6,7,8-tetrahydropyrido[3,4-d]pyrimidin-4-yl)piperazin-1-yl)prop-2-en-1-one]	1 to 1000
C=CC(=O)N1CCN(c2nc(OC[C@@H]3CCCN3C)nc3c2CCN(c2ccccc2C(F)(F)F)C3)C[C@@H]1CC#N [Example 237, 2-((S)-1-acryloyl-4-(2-(((S)-1-methylpyrrolidin-2-yl)methoxy)-7-(2-(trifluoromethyl)phenyl)-5,6,7,8-tetrahydropyrido[3,4-d]pyrimidin-4-yl)piperazin-2-yl)acetonitrile 2,2,2-trifluoroacetate]	1 to 1000
